Results: patent US20040023878A1, “Gnrh analogues for treatment of urinary incontinence” (priority 2003, published 2004)
Several values for one entry are separate records, joined by “and”; a condition that tells them apart may be missing. Equal values may be shown once. Entries after “also recorded” stand apart in the source; their conditions may differ. Where a name gives a salt, the structure may show the parent alone.

Assays:
[1] = tested on: excessive growth of the undercoat (baby coat) due to spaying; test: Two cocker spaniel bitches with excessive growth of the undercoat due to spaying, slow-release s.c. implant; type: in vivo, dog; details: 5 mg slow release s.c.
Procedure: Two cocker spaniel bitches belonging to the same owner were showing excessive growth of the undercoat due to spaying. […] Both dogs were first clinically examined and thereafter a GnRH analogue (Deslorelin) in a dosage of 5 mg, in slow release form, was subcutaneously implanted between the shoulder blades.

stress incontinence = test: Menopausal person with stress incontinence, 24 hour pad test; type: in vivo, human; details: single dose 3.75 mg, one person
Procedure: A second menopausal person, suffering from stress incontinence for at least 6 years, was treated with a single dose of 3.75 mg of leuprolide acetate. 24 hour pad tests conducted prior to treatment with the drug indicated they lost between 10 and 130 ml of urine on a daily basis due to their incontinence.

[2] = tested on: dogs suffering from urinary incontinence; test: Double-blind, placebo-control study with open label phase in 16 client owned dogs suffering from urinary incontinence; type: in vivo, dog; details: ongoing study
Procedure: In a second ongoing study, 16 client owned dogs suffering from urinary incontinence were enrolled in a double-blind, placebo-control study. In the initial phase of the study, dogs were randomly assigned to treatment with a long-acting GnRH analogue (leuprolide acetate) or placebo (dog owners and the investigators were blinded to treatment) along with a short course of therapy with phenylpropanolamine. 5 weeks after treatment with drug or placebo, dogs were evaluated and, if not fully continent, treated with a long-acting GnRH analogue (leuprolide acetate) in an open label phase of the study. To date only 1 of 10 dogs treated with placebo became continent vs. […] treated with drug during the blinded portion of the study. Overall, the results generated thus far indicate […] dogs treated with the long-acting GnRH analogue became continent and […] improved after discontinuation of the short acting phenylpropanolamine. Only 1 dog of 15 treated with the GnRH analogue was considered not to have improved following treatment with the drug.

[3] = tested on: bitches suffering from urinary incontinence after spaying; test: Fifteen bitches with urinary incontinence after spaying, given a slow-release s.c. GnRH analogue implant plus phenylpropanolamine for a limited period; type: in vivo, dog; details: for Side effects: dash = none
Procedure: Additionally, for a limited period the dogs were treated with phenylpropanolamine in a dosage of 1.5 mg/kg BW tid orally.
After discontinuation of the shortacting phenylpropanolamine 8 bitches remained continent. Their continence was therefore achieved solely by the treatment with the composition as described in the present invention. Seven out of fifteen dogs seemed to be much happier and in none of the dogs did the general condition deteriorate. […] The respective results are shown in more detail in table 1.

[4] = tested on: urinary incontinence of the bitch; details: 1.5 mg/kg BW p.o. given every 8 hours; incontinent spayed bitches; cited from earlier work
[5] = tested on: urge incontinence and hotflushes; test: Perimenopausal person with urge incontinence and hot flushes; type: in vivo, human; details: 3.75 mg; one perimenopausal person
[6] = 11,25 mg slow release s.c. implant, no 'with PPA' mark, individual bitches, listed as Leuprorelin acetate
[7] = 11,25 mg slow release s.c. implant, with PPA, individual bitch
[8] = 6 mg slow release s.c. implant, no 'with PPA' mark, individual bitches
[9] = 12 mg slow release s.c. implant, no 'with PPA' mark, individual bitches

CCNC(=O)[C@@H]1CCCN1C(=O)[C@H](CCCN=C(N)N)NC(=O)[C@H](CC(C)C)NC(=O)[C@@H](Cc1c[nH]c2ccccc12)NC(=O)[C@H](Cc1ccc(O)cc1)NC(=O)[C@H](CO)NC(=O)[C@H](Cc1c[nH]c2ccccc12)NC(=O)[C@H](Cc1cnc[nH]1)NC(=O)[C@@H]1CCC(=O)N1 [Deslorelin]
Coat quality ([1]; 5 weeks after the injection, both dogs): obvious amelioration of the coat quality | Signs of baby coat ([1]; 21 weeks after injection): no signes of “baby coat” were apparent anymore

CCNC(=O)[C@@H]1CCCN1C(=O)[C@H](CCCNC(=N)N)NC(=O)[C@H](CC(C)C)NC(=O)[C@@H](CC(C)C)NC(=O)[C@H](Cc1ccc(O)cc1)NC(=O)[C@H](CO)NC(=O)[C@H](Cc1c[nH]c2ccccc12)NC(=O)[C@H](Cc1c[nH]cn1)NC(=O)[C@@H]1CCC(=O)N1 [Leuprorelinacetate, leuprolide acetate]
Daily urine loss, pad test (stress incontinence; 2 weeks after treatment, before treatment between 10 and 130 ml daily): 1 mL | Patient's satisfaction with the effects of the therapy (stress incontinence): very satisfied | Dogs that became continent after discontinuation of phenylpropanolamine, overall ([2]; of 15 dogs treated (blinded plus open label)): 6 dogs | Dogs considered not to have improved following treatment ([2]; of 15 treated): 1 dog | Remaining dogs that improved after discontinuation of phenylpropanolamine ([2]; of the remaining dogs of 15 treated): 9 dogs | Dogs that became continent during the blinded portion of the study ([2]; printed '3 to 8 dogs treated with drug', 5 weeks after treatment, with short course of phenylpropanolamine): 3 dogs | Duration of effect after treatment ([3]; 11,25 mg slow release s.c. implant, no 'with PPA' mark, individual bitches): 0 days | Duration of effect after treatment [3, 6]: >14 days | Effect on incontinence [3, 6]: 100% | Duration of effect after treatment [3, 7]: >64 days | Effect on incontinence [3, 7]: 100%

CN[C@@H](C)[C@H](O)c1ccccc1 [ephedrinhydrochloride]
Continence achieved [4]: 74% | Showed some improvement [4]: at least 24%

CC(N)C(O)c1ccccc1 (centres unmarked) [phenylpropanolamine]
Continence achieved [4]: 74% | Showed some improvement [4]: at least 24%

Buserelin acetate [Buserelinacetate]
Duration of effect after treatment ([3]; 6,3 mg slow release s.c. implant, individual bitches): 44 days and 83 days | Effect on incontinence ([3]; 6,3 mg slow release s.c. implant, no 'with PPA' mark, individual bitches): 100%

Deslorelin acetate [Deslorelinacetate]
Side effects ([3]; 6 mg slow release s.c. implant, individual bitches): More playfull | Duration of effect after treatment [3, 8]: >47 days and >340 days | Effect on incontinence [3, 8]: 100% | Effect on incontinence ([3]; 6 mg slow release s.c. implant, with PPA, individual bitch): 100% | Side effects ([3]; 12 mg slow release s.c. implant, individual bitches): less aggressive; also recorded: more activ | Duration of effect after treatment [3, 9]: 64 days and >64 days | Effect on incontinence [3, 9]: 100% | Effect on incontinence ([3]; 12 mg slow release s.c. implant, with PPA, individual bitches): 80% and 100% (2×)

Triptorelin acetate [Triptorelinacetate]
Period of improvement of symptoms [5]: about 4 weeks | Duration of effect after treatment ([3]; 3,75 mg slow release s.c. implant (dose too low), individual bitch): 0
